Measured values taken from patent publication US20230088704A1, “A PHARMACEUTICAL COMBINATION FOR THE TREATMENT OF A CANCER” (ABILITY PHARMACEUTICALS S.L., priority 2020, published 2023).

Legend:
[1] = tested on: human immortalized THP1 macrophages and human primary macrophages; assay: Secretome of THP1 and primary macrophages, cytokine antibody array; format: cell-based
Experimental: Methods: Whole blood was collected from healthy donors, and circulating monocytes were purified using immunomagnetic separation. Monocytes were selected using anti-CD14 antibodies bound to magnetic beads, which were retained in the magnetic column and further eluted for culturing in vitro. Monocytes were differentiated to macrophages incubating with M-CSF1 at 20 ng/mL for 7 days. Once primary monocytes were differentiated to macrophages, these were polarized to M1 by incubation with LPS for 6 or 24 hours in the presence of ABTL0812 (50 or 100 μM). In parallel, differentiated macrophages were polarized to M2 by incubation with IL-4 and IL-13 for 24 hours in the presence of ABTL0812 (50 μM). THP-1 monocytes growing in suspension were differentiated to macrophages by incubation with PMA for 24 hours, inducing their attachment to the plates. Once THP-1 were differentiated to macrophages, these were polarized to M1 by incubation with LPS for 6 or 24 hours in the presence of ABTL0812 (50 μM). In parallel, differentiated macrophages were polarized to M2 by incubation with IL-4 and IL-13 for 24 hours in the presence of ABTL0812 (50 μM). The culture media from ABTL0812 treated M1, M2 and differentiated macrophages (M0) were incubated using the RayBio C-Series Human Cytokine Antibody Array C3 (RayBiotec). Culture media was incubated with a PVDF (Polyvinylidene fluoride) membrane containing antibodies against 42 different cytokines. After incubation of culture media, the membrane was incubated with secondary antibodies and further developed using HRP (Horseradish peroxidase) substrate.

[2] = tested on: PD1; assay: PD1 expression in primary T cells by flow cytometry; format: cell-based, human; conditions: 6 hours
Experimental: Methods: Human PBMCs were purified from peripheral blood of healthy donors using Ficoll and cultured in vitro. Human T cells were activated by incubation with IL-2 and CD3 and CD28 antibodies for 10 days and then treated with ABTL0812 for 6 hours. Finally, levels of PD1 expressed in the membrane of T cells was analyzed by flow cytometry using specific antibodies. Results are indicated as % of positive cells and show the average of three independent experiments (t-test **p<0.01 and ***p<0.001).

[3] = tested on: Ishikawa cells; assay: Human endometrial cancer xenograft, ABTL0812 with bevacizumab; format: in vivo; conditions: ABTL0812 oral 120 mg/kg/day; Bevacizumab ip 100 μg/dose every four days
Experimental: Methods: Mice were injected with 4×10^6 Ishikawa cells in one flank to induce tumor formation. […] Bevacizumab was administered ip at 100 μg/dose, every four days up to four administration. Tumor volume and body weight were monitored 3 times a week.

[4] = tested on: Human pancreatic cancer cells; assay: Secretome of pancreatic cancer cells, chemokine antibody array; format: cell-based; conditions: ABTL0812 100 μM; 24 hours
Experimental: Methods: Human pancreatic cancer cells were treated with ABTL0812 at 100 μM for 24 hours and culture media was collected for its incubation using the RayBio C-Series Human Chemokine Antibody Array C1 (RayBiotec). Culture media was incubated with a membrane containing antibodies against 38 different chemokines. Afterwards, the membrane was incubated with secondary antibodies and further developed using HRP substrate.

[5] = tested on: LA1-5S cells; assay: Cell viability (crystal violet), ABTL0812 with topotecan; format: cell-based; conditions: ABTL0812 30 μM + topotecan 0.5, 1, 2 μM; 72 hours
Experimental: Methods: LA1-5S cells were incubated with increasing concentrations of topotecan (0.5 μM, 1 μM and 2 μM) and a fixed concentration of ABTL0812 (30 μM). Cells were treated for 72 hours in IMDM with 0.5% FBS. Cell viability was evaluated by crystal violet assay. Data is presented as mean±SEM of three independent experiments. Statistical analyses were performed according to the T-Test principle with GraphPad Prism® 5.0 software.

[6] = tested on: LA1-5S cells; assay: Cell viability (crystal violet), ABTL0812 with irinotecan; format: cell-based; conditions: ABTL0812 30 μM + irinotecan 4, 8, 16 μM; 72 hours
Experimental: Methods: LA1-5S cells were incubated with increasing concentrations of irinotecan (4 μM, 8 μM and 16 μM) and a fixed concentration of ABTL0812 (30 μM). Cells were treated for 72 hours in IMDM with 0.5% FBS. Cell viability was evaluated by crystal violet assay. Data is presented as mean±SEM of three independent experiments. Statistical analyses were performed according to the T-Test principle with GraphPad Prism® 5.0 software (*p<0.05; **p<0.01; ***p<0.001).

[7] = tested on: LLC1 cells; assay: Syngeneic lung cancer model, subcutaneous LLC1, tumor volume; format: in vivo, C57BL6 mice; conditions: ABTL0812 oral 120 mg/kg/day; anti-PD1 i.p. 100 μg/dose every three days; carboplatin and paclitaxel i.p. once a week
Experimental: C57BL6 mice were injected with 0.25×10^6 LLC1 cells in one flank to induce tumor formation. […] Tumor volume and body weight were monitored 3 times a week.

[8] = tested on: U87MG cells; assay: Human glioblastoma orthotopic xenograft, ABTL0812 with radiotherapy; format: in vivo, nude mice
Experimental: Methods: Mice were intra-cerebrally injected with luciferase transfected U87MG cells. Animals were randomized 5 days after cell inoculation and treatments started. ABTL0812 was administered orally at 240 mg/kg 5 days/week and radiotherapy as single dose of 4 Gy administered at day 10.
Tumors were measured by quantification of bioluminescence intensity (BLI) of the region of interest.

[9] = tested on: MiaPaca2 cells; assay: PDL1 protein in xenograft tumors by western blot; format: in vivo, nude mice; conditions: ABTL0812 oral 120 mg/kg/day for three weeks
Experimental: (§1) Methods: Mice were injected with 4×10^6 H157 cells or 5×10^6 MiaPAca2 cells in one flank to induce tumor formation. […] After treatment, animals were sacrificed, tumor extracted and protein levels of PDL1 in cancer cells analyzed by western blot.

[10] = tested on: H157 cells; assay: PDL1 protein in xenograft tumors by western blot; format: in vivo, nude mice; conditions: ABTL0812 oral 120 mg/kg/day for three weeks
Experimental: as §1

[11] = common in immortalized THP1 cells and in primary macrophages

Structure (SMILES): CCCCC/C=C\C/C=C\CCCCCCC(O)C(=O)O (stereo not drawn) [ABTL0812, COOH—CHOH—(CH2)6—(CH═CH—CH2)2—(CH2)3—CH3]
- secreted IL-1β ([1]; ABTL0812 50 or 100 μM): upregulation
- secreted TNF-α ([1]; ABTL0812 50 or 100 μM): upregulation
- secreted CCL7 [1, 11]: inhibited
- secreted CCL8 [1, 11]: inhibited
- secreted CCL17 [1, 11]: inhibited
- secreted CCL22 [1, 11]: inhibited
- secreted IL-10 [1, 11]: inhibited
- PD1 expression ([2]; activated (IL-2, CD3 and CD28 antibodies) human primary CD4 and CD8 T lymphocytes): induces the inhibition of PD1 expression
- PD1 expression ([2]; non-activated human primary CD4 and CD8 T lymphocytes): induces the inhibition of PD1 expression
- tumor volume [3]: significantly reduced tumor volume
- secreted CCL5 [4]: decrease
- secreted CXCL6 [4]: decrease
- secreted CXCL16 [4]: decrease
- secreted angiogenin [4]: decrease
- topotecan cytotoxicity on addition of ABTL0812 [5]: significantly increased topotecan cytotoxicity
- irinotecan cytotoxicity on addition of ABTL0812 [6]: significantly increased irinotecan cytotoxicity
- tumor volume [7]: significantly reduced tumor volume
- disease-free survival, single agent ([8]; ABTL0812 oral 240 mg/kg 5 days/week): significantly increased the disease-free survival
- disease-free survival, combination with radiotherapy ([8]; ABTL0812 oral 240 mg/kg 5 days/week + radiotherapy single dose 4 Gy at day 10): significantly more efficacious than the single treatments
- protein levels of PDL1 in tumor [9]: Increases protein levels of PDL1 in tumor in vivo
- protein levels of PDL1 in tumor [10]: Increases protein levels of PDL1 in tumor in vivo
